This experiment concerns the target T1, ADGRD1 (Homo sapiens, UniProt Q6QNK2).
T1 construct: Flag (N); expressed in transfected cells; host or cells: HEK293F
T1 sequence (Q6QNK2 26-874): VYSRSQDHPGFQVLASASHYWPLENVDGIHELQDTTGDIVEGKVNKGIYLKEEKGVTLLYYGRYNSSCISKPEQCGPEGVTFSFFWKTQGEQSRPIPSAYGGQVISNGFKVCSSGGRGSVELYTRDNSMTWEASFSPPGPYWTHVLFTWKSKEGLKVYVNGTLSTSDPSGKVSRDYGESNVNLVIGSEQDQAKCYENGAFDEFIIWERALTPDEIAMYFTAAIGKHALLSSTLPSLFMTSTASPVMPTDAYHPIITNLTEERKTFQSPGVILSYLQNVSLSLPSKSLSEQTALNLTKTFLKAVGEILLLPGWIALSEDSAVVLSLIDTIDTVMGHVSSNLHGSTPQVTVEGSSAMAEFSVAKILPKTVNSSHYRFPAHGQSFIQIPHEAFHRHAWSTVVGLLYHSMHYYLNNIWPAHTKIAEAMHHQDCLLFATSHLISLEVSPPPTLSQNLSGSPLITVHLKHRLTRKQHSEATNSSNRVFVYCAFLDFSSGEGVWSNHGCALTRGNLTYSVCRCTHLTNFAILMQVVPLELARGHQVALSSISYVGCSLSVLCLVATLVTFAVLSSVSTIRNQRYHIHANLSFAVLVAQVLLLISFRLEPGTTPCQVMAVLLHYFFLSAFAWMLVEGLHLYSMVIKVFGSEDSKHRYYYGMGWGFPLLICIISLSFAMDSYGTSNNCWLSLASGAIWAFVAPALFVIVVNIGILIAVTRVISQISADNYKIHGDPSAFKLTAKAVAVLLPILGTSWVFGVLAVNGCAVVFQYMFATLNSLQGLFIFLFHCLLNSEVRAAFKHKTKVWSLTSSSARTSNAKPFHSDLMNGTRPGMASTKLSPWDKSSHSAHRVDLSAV
The experiment can be described thus: BRET assay using TRUPATH biosensors, G protein activation of ADGRD1. It is filed as cell-based. To be noted: Gs, ADGRD1 WT, n = 3. Here is the method:
To study the synthetic stalk peptide-induced G protein activation of ADGRD1 and ADGRF1, a BRET assay using TRUPATH biosensors was conducted to measure the proximal interaction between RLuc8 fused to the Gα subunit and GFP2 fused to the Gγ subunit. The TRUPATH suite of biosensors was obtained from Addgene (Addgene kit no. 1000000163) as a gift from B. Roth, including GαsS-RLuc8, Gαi1-RLuc8, Gβ3 and Gγ9-GFP2 as previously described.
The wild-type or mutant ADGRD1 and ADGRF1 were transiently co-transfected with plasmids encoding Gα-RLuc8 (GαsS-RLuc8 for Gs activation assay; Gαi1-RLuc8 for Gi activation assay), Gβ3 and Gγ9-GFP2 at a ratio of 2:1:1:1 (receptor plasmid, 800 ng; G protein subunit plasmids, 400 ng for each) in 2 ml HEK293F cells at a density of 1.2 × 10^6 cells per ml. Cell cultivation and receptor surface expression measurement were performed as described above. The cells were plated into 96-well white plates (40,000 cells per well) in 60 μl of assay buffer and incubated at 37 °C for 30 min. Then 10 μl of freshly prepared 50 μM coelenterazine 400a (Nanolight Technologies) was added. […] The cells were stimulated with 30 μl of synthetic stalk peptide at different concentrations and the BRET signals were monitored continuously five times. The last measurements were used in data analysis. The BRET ratios were calculated as the ratio of the GFP2 emission to RLuc8 emission.

These results are taken from paper PMC9046087, “Structural basis of tethered agonism of the adhesion GPCRs ADGRD1 and ADGRF1” (Nature, 2022).

Ends that are not written are not given here.

In the case of TSFSILMSPFVP [pF1], the “Emax (mean ± s.e.m.)” value is on record as 67 ± 12 % of WT. Moreover, the EC50 (read-out: pEC50 (mean ± s.e.m.) (converted)) is 1.26 µM.
